# Measured values: paper PMC10495264 (Nature Cell Biology, 2023)
# Where two headings read alike, the source gives them in different places.
# Columns and labels:
# TORC1 [1] = molecular target: T1, TORC1 (Saccharomyces cerevisiae, UniProt P35169); assay: Yeast TORC1 kinase activity assays (radioactive IVK, Lst4^Loop substrate); type: biochemical; details: for In vitro TORC1 kinase assay - CoA compounds, relative activity, Mean: Fig. 8b; for IC50: Lst4^Loop phosphorylation, detection limit 6 mM, n = 3, read-out: IC50 (yeast TORC1 IVK)
# T1 construct: made in house; host or cells: S. cerevisiae strain NIC005 ([RL170-2c] LEU2:GFP-TOR1)
# Method: TORC1 was purified from yeast cells and radioactive IVK assays were performed essentially as previously described. Briefly, kinase reactions (total volume, 30 μl) were performed with 400 ng of purified His6–Lst4^Loop protein and 60 ng TORC1 in kinase buffer (50 mM HEPES NaOH pH 7.5 and 150 mM NaCl). […] All reactions were carried out at 30 °C for 10 min and stopped with the addition of 3×sample buffer (50 mM Tris–HCl pH 6.8, 5% SDS, 0.05% bromophenol blue, 630 mM DTT and 30% glycerol) and heating at 65 °C for 10 min. Proteins were separated by SDS–PAGE and stained in-gel with SYPRO Ruby (S4942, Sigma-Aldrich) as the loading control. Substrate phosphorylation was analysed by autoradiography using a Typhoon FLA 9500 phosphorimager (GE Healthcare) and the raw density of the signals was quantified using the gel analysis tool of ImageJ.
# mTORC1 = molecular target: T2, mTORC1 (Homo sapiens, UniProt P42345); assay: Mammalian mTORC1 kinase activity assays (IVK, 4E-BP1 substrate); type: biochemical; details: for In vitro mTORC1 assay, p-4E-BP1(T37/46)/4E-BP1, Mean: Fig. 8f, relative to 0 mM
# T2 construct: endogenous mTORC1 complexes were purified from HEK293FT cells; endogenous in cells; host or cells: HEK293FT (immunoprecipitation of endogenous mTOR); the 4E-BP1 substrate was made in E. coli BL21 RP
# Method: Following the last wash step with CHAPS IP wash buffer, the beads were washed once with kinase wash buffer (25 mM HEPES pH 7.4 and 20 mM KCl) and excess liquid was removed using a Hamilton syringe—the final bead volume was approximately 10 μl. Kinase reactions were prepared by adding 10 μl of 3×kinase assay buffer (75 mM HEPES KOH pH 7.4, 60 mM KCl and 30 mM MgCl2) to the beads. […] The reactions were incubated at 30 °C for 30 min, and stopped by the addition of one volume of 2×SDS loading buffer and boiling (5 min, 95 °C). […] Signals were quantified using the gel analysis tool of ImageJ and are shown as the phospho-4E-BP1^T37/46/4E-BP1 ratio.
# TORC1 [2] = assay: TORC1 activity in yeast cells, p-Sch9^T737/Sch9 immunoblot; type: cell-based, Saccharomyces cerevisiae; details: wt Ctrl = 1
# [3] = compound 0.073 mM, normalised to this concentration
# T1 sequence (P35169 whole entry): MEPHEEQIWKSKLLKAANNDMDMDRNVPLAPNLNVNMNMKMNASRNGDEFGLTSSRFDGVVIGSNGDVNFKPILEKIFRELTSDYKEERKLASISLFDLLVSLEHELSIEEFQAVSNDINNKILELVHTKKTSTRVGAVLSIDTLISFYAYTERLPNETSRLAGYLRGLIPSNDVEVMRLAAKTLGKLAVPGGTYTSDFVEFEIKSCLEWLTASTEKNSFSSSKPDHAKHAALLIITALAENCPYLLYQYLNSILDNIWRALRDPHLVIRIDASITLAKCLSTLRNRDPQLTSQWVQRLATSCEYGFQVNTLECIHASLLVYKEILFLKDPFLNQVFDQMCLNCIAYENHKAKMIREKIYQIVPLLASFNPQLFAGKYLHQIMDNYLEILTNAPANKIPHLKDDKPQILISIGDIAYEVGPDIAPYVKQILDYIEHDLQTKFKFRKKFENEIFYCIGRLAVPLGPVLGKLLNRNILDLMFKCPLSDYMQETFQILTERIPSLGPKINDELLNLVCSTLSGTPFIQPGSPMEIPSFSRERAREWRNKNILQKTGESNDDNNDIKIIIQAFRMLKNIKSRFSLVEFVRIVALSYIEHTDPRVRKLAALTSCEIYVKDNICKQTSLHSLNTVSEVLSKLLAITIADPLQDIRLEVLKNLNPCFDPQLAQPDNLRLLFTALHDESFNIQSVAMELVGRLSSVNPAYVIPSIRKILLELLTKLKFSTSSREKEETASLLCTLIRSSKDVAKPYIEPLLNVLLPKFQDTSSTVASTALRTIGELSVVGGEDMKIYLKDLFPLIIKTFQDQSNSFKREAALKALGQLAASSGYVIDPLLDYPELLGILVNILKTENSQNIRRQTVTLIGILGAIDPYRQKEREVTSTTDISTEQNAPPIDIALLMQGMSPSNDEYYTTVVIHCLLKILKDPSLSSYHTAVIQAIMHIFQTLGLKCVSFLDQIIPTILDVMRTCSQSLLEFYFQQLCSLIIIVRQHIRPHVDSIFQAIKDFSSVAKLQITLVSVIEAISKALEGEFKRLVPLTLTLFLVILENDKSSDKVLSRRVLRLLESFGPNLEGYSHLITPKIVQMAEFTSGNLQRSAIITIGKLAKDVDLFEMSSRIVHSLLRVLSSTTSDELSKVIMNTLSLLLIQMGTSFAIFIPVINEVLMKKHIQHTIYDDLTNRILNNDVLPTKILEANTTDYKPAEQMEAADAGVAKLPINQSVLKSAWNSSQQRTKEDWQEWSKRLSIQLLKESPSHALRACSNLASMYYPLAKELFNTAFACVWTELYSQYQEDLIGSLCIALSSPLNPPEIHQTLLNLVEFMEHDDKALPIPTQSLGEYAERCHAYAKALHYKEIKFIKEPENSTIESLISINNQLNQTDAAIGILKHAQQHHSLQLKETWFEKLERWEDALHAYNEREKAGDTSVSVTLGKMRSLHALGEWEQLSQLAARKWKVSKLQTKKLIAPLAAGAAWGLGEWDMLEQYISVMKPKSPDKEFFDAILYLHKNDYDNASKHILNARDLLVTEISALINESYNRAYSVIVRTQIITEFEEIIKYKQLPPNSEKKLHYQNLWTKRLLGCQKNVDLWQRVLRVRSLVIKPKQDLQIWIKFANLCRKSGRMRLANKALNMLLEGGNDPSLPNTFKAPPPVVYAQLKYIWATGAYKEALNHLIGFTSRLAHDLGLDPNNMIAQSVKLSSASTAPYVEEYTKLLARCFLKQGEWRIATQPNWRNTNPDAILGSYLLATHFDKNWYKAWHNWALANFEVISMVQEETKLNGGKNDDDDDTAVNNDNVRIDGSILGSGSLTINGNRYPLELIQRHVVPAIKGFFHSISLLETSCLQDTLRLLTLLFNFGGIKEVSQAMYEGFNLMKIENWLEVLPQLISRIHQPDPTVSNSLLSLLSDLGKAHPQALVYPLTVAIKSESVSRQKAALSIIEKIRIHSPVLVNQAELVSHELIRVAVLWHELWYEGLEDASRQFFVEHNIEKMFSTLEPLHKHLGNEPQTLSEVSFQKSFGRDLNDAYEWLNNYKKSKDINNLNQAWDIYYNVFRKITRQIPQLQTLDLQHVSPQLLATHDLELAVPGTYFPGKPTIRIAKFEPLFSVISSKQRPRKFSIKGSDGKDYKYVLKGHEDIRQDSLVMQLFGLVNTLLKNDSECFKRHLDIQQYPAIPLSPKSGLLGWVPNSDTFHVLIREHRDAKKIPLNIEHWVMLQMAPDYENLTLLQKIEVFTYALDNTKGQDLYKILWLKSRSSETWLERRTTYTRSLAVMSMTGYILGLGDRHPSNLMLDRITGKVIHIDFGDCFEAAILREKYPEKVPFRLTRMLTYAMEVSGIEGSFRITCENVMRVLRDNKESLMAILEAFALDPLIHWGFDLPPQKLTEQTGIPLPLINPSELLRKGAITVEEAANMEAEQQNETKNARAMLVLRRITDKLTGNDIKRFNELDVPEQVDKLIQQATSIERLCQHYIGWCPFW
# T1 sequence (Q08921 whole entry partner): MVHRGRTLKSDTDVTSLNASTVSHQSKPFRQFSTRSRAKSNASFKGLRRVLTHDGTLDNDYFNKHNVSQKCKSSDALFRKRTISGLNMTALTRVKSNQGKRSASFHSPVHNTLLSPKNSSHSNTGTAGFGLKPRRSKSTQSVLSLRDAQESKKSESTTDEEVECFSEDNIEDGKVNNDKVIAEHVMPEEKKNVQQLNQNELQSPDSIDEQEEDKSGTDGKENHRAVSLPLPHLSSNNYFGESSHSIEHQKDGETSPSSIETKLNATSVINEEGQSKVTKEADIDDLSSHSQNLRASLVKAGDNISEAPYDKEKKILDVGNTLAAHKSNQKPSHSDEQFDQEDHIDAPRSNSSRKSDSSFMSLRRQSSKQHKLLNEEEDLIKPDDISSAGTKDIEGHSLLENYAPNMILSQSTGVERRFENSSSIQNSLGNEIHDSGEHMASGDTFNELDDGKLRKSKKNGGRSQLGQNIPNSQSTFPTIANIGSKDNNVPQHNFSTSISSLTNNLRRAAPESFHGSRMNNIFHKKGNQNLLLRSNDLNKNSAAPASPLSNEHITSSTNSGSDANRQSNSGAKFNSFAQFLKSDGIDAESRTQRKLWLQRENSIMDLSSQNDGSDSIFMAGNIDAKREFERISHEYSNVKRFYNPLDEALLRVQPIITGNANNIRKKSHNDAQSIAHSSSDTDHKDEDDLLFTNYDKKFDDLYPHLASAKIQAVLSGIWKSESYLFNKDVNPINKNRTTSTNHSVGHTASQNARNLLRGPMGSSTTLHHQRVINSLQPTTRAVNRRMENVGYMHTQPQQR
# T1 sequence (P38873 whole entry partner): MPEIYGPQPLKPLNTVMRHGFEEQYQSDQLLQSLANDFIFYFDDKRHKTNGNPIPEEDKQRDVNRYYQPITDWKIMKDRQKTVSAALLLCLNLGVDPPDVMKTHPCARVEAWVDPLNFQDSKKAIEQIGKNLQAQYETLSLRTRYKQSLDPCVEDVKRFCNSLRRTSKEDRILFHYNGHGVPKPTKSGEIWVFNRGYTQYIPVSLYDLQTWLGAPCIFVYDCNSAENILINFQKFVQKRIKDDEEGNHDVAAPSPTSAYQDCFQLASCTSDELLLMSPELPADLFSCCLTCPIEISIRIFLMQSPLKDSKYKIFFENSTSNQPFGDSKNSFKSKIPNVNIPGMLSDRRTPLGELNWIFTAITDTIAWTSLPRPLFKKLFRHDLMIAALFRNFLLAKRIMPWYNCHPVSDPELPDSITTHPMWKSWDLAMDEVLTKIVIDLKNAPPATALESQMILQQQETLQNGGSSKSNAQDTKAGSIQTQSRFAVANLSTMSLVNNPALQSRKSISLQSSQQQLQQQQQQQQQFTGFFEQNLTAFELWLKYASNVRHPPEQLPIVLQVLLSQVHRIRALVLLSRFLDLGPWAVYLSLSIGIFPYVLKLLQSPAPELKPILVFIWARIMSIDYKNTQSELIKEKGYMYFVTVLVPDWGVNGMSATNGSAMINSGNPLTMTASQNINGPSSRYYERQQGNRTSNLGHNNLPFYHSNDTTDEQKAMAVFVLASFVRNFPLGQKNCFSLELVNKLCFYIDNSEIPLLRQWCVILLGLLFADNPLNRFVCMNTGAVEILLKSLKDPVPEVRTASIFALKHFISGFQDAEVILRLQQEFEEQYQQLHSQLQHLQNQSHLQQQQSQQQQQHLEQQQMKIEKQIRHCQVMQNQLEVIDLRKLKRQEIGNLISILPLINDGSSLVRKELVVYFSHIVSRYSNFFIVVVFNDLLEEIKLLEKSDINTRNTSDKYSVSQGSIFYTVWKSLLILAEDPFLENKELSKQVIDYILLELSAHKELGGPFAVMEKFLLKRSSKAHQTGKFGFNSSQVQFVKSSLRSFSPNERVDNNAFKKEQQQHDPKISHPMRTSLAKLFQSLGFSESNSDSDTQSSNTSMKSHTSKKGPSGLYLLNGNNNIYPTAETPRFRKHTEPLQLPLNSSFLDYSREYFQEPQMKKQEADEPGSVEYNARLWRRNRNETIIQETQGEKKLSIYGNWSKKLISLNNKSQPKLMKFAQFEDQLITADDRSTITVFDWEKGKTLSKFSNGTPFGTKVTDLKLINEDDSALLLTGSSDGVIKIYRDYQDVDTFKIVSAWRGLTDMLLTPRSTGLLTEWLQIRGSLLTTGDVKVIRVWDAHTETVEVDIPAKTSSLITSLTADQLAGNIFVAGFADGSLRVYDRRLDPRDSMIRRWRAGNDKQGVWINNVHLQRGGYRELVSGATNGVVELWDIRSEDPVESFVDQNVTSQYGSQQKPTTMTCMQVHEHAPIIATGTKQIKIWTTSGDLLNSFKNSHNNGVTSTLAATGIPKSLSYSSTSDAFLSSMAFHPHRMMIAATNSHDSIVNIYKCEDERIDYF
# T1 sequence (P41318 whole entry partner): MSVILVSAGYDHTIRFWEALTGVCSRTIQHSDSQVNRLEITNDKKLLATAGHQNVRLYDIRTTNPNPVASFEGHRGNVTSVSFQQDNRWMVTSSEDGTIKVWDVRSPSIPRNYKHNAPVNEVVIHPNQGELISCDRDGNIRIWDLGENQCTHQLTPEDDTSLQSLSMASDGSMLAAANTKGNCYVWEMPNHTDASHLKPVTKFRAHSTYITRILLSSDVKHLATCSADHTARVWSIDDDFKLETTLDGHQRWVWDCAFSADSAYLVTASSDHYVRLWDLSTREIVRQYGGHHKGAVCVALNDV
compound,measurement,setting,value
"CC(C)(COP(=O)(O)OP(=O)(O)OC[C@H]1O[C@@H](n2cnc3c(N)ncnc32)[C@H](O)[C@@H]1OP(=O)(O)O)[C@@H](O)C(=O)NCCC(=O)NCCS [CoA, coenzyme A]","In vitro TORC1 kinase assay - CoA compounds, relative activity, Mean",TORC1 [1]; [3],1
same,"In vitro TORC1 kinase assay - CoA compounds, relative activity, Mean",TORC1 [1]; compound 0.22 mM,1.005
same,"In vitro TORC1 kinase assay - CoA compounds, relative activity, Mean",TORC1 [1]; compound 2 mM,0.9479
same,"In vitro TORC1 kinase assay - CoA compounds, relative activity, Mean",TORC1 [1]; compound 6 mM,0.6805
same,IC50,TORC1 [1],> 6000 µM
same,IC50,mTORC1,> 5000 µM
same,"In vitro mTORC1 assay, p-4E-BP1(T37/46)/4E-BP1, Mean",mTORC1; compound 0.01 mM,0.8503
same,"In vitro mTORC1 assay, p-4E-BP1(T37/46)/4E-BP1, Mean",mTORC1; compound 0.05 mM,0.8507
same,"In vitro mTORC1 assay, p-4E-BP1(T37/46)/4E-BP1, Mean",mTORC1; compound 0.1 mM,1.093
same,"In vitro mTORC1 assay, p-4E-BP1(T37/46)/4E-BP1, Mean",mTORC1; compound 0.5 mM,0.8643
same,"In vitro mTORC1 assay, p-4E-BP1(T37/46)/4E-BP1, Mean",mTORC1; compound 1 mM,1.061
same,"In vitro mTORC1 assay, p-4E-BP1(T37/46)/4E-BP1, Mean",mTORC1; compound 2.5 mM,0.926
same,"In vitro mTORC1 assay, p-4E-BP1(T37/46)/4E-BP1, Mean",mTORC1; compound 5 mM,0.889
"NC(=O)CC[C@H](N)C(=O)O [Gln, glutamine]","p-Sch9(T737)/Sch9, Mean","TORC1 [2]; Acc1-GFP yeast, nitrogen-starved then +Gln 1 min, ED Fig. 2e",0.2777
same,"p-Sch9(T737)/Sch9, Mean","TORC1 [2]; Acc1-GFP yeast, nitrogen-starved then +Gln 2 min, ED Fig. 2e",0.2567
same,"p-Sch9(T737)/Sch9, Mean","TORC1 [2]; Acc1-GFP yeast, nitrogen-starved then +Gln 5 min, ED Fig. 2e",0.172
same,"p-Sch9(T737)/Sch9, Mean","TORC1 [2]; acc1E392K yeast, nitrogen-starved then +Gln 1 min, ED Fig. 1g",0.2184
same,"p-Sch9(T737)/Sch9, Mean","TORC1 [2]; acc1E392K yeast, nitrogen-starved then +Gln 2 min, ED Fig. 1g",0.4052
same,"p-Sch9(T737)/Sch9, Mean","TORC1 [2]; acc1E392K yeast, nitrogen-starved then +Gln 5 min, ED Fig. 1g",0.172
same,"p-Sch9(T737)/Sch9, Mean","TORC1 [2]; acc1E392K yeast, nitrogen-starved then +Gln 15 min, ED Fig. 1g",0.07897
same,"p-Sch9(T737)/Sch9, Mean","TORC1 [2]; acc1E392K,S1157A yeast, nitrogen-starved then +Gln 1 min, ED Fig. 1g",0.2597
same,"p-Sch9(T737)/Sch9, Mean","TORC1 [2]; acc1E392K,S1157A yeast, nitrogen-starved then +Gln 2 min, ED Fig. 1g",0.4125
same,"p-Sch9(T737)/Sch9, Mean","TORC1 [2]; acc1E392K,S1157A yeast, nitrogen-starved then +Gln 5 min, ED Fig. 1g",0.1831
same,"p-Sch9(T737)/Sch9, Mean","TORC1 [2]; acc1E392K,S1157A yeast, nitrogen-starved then +Gln 15 min, ED Fig. 1g",0.0777
same,"p-Sch9(T737)/Sch9, Mean","TORC1 [2]; acc1S1157A yeast, nitrogen-starved then +Gln 1 min, ED Fig. 1g",0.08981
same,"p-Sch9(T737)/Sch9, Mean","TORC1 [2]; acc1S1157A yeast, nitrogen-starved then +Gln 1 min, ED Fig. 2e",0.1842
same,"p-Sch9(T737)/Sch9, Mean","TORC1 [2]; acc1S1157A yeast, nitrogen-starved then +Gln 1 min, Fig. 2e",0.5322
same,"p-Sch9(T737)/Sch9, Mean","TORC1 [2]; acc1S1157A yeast, nitrogen-starved then +Gln 2 min, ED Fig. 1g",0.2298
same,"p-Sch9(T737)/Sch9, Mean","TORC1 [2]; acc1S1157A yeast, nitrogen-starved then +Gln 2 min, ED Fig. 2e",0.2323
same,"p-Sch9(T737)/Sch9, Mean","TORC1 [2]; acc1S1157A yeast, nitrogen-starved then +Gln 2 min, Fig. 2e",0.5731
same,"p-Sch9(T737)/Sch9, Mean","TORC1 [2]; acc1S1157A yeast, nitrogen-starved then +Gln 5 min, ED Fig. 1g",0.1433
same,"p-Sch9(T737)/Sch9, Mean","TORC1 [2]; acc1S1157A yeast, nitrogen-starved then +Gln 5 min, ED Fig. 2e",0.1614
same,"p-Sch9(T737)/Sch9, Mean","TORC1 [2]; acc1S1157A yeast, nitrogen-starved then +Gln 5 min, Fig. 2e",0.2159
same,"p-Sch9(T737)/Sch9, Mean","TORC1 [2]; acc1S1157A yeast, nitrogen-starved then +Gln 15 min, ED Fig. 1g",0.0801
same,"p-Sch9(T737)/Sch9, Mean","TORC1 [2]; acc1S1157A yeast, nitrogen-starved then +Gln 15 min, Fig. 2e",0.1147
same,"p-Sch9(T737)/Sch9, Mean","TORC1 [2]; acc1S1157A-GFP yeast, nitrogen-starved then +Gln 1 min, ED Fig. 2e",0.2949
same,"p-Sch9(T737)/Sch9, Mean","TORC1 [2]; acc1S1157A-GFP yeast, nitrogen-starved then +Gln 2 min, ED Fig. 2e",0.2508
same,"p-Sch9(T737)/Sch9, Mean","TORC1 [2]; acc1S1157A-GFP yeast, nitrogen-starved then +Gln 5 min, ED Fig. 2e",0.1919
same,"p-Sch9(T737)/Sch9, Mean","TORC1 [2]; wt yeast, nitrogen-starved then +Gln 1 min, n = 3, ED Fig. 2e",0.3518
same,"p-Sch9(T737)/Sch9, Mean","TORC1 [2]; wt yeast, nitrogen-starved then +Gln 1 min, n = 4, ED Fig. 1g",0.1938
same,"p-Sch9(T737)/Sch9, Mean","TORC1 [2]; wt yeast, nitrogen-starved then +Gln 2 min, Fig. 2e",0.8468
same,"p-Sch9(T737)/Sch9, Mean","TORC1 [2]; wt yeast, nitrogen-starved then +Gln 2 min, n = 3, ED Fig. 2e",0.2928
same,"p-Sch9(T737)/Sch9, Mean","TORC1 [2]; wt yeast, nitrogen-starved then +Gln 2 min, n = 4, ED Fig. 1g",0.4107
same,"p-Sch9(T737)/Sch9, Mean","TORC1 [2]; wt yeast, nitrogen-starved then +Gln 5 min, Fig. 2e",0.2605
same,"p-Sch9(T737)/Sch9, Mean","TORC1 [2]; wt yeast, nitrogen-starved then +Gln 5 min, n = 3, ED Fig. 2e",0.215
same,"p-Sch9(T737)/Sch9, Mean","TORC1 [2]; wt yeast, nitrogen-starved then +Gln 5 min, n = 4, ED Fig. 1g",0.1743
same,"p-Sch9(T737)/Sch9, Mean","TORC1 [2]; wt yeast, nitrogen-starved then +Gln 15 min, Fig. 2e",0.1412
same,"p-Sch9(T737)/Sch9, Mean","TORC1 [2]; wt yeast, nitrogen-starved then +Gln 15 min, n = 4, ED Fig. 1g",0.07833
CC(=O)SCCNC(=O)CCNC(=O)[C@H](O)C(C)(C)COP(=O)(O)OP(=O)(O)OC[C@H]1O[C@@H](n2cnc3c(N)ncnc32)[C@H](O)[C@@H]1OP(=O)(O)O [acetyl-CoA],"In vitro TORC1 kinase assay - CoA compounds, relative activity, Mean",TORC1 [1]; [3],1
same,"In vitro TORC1 kinase assay - CoA compounds, relative activity, Mean",TORC1 [1]; compound 0.22 mM,0.9698
same,"In vitro TORC1 kinase assay - CoA compounds, relative activity, Mean",TORC1 [1]; compound 2 mM,0.7319
same,"In vitro TORC1 kinase assay - CoA compounds, relative activity, Mean",TORC1 [1]; compound 6 mM,0.5296
same,IC50,TORC1 [1],2880 µM
same,"In vitro mTORC1 assay, p-4E-BP1(T37/46)/4E-BP1, Mean",mTORC1; compound 0.01 mM,0.9483
same,"In vitro mTORC1 assay, p-4E-BP1(T37/46)/4E-BP1, Mean",mTORC1; compound 0.05 mM,0.8033
same,"In vitro mTORC1 assay, p-4E-BP1(T37/46)/4E-BP1, Mean",mTORC1; compound 0.1 mM,0.8597
same,"In vitro mTORC1 assay, p-4E-BP1(T37/46)/4E-BP1, Mean",mTORC1; compound 0.5 mM,0.644
same,"In vitro mTORC1 assay, p-4E-BP1(T37/46)/4E-BP1, Mean",mTORC1; compound 1 mM,0.6848
same,"In vitro mTORC1 assay, p-4E-BP1(T37/46)/4E-BP1, Mean",mTORC1; compound 2.5 mM,0.4704
same,"In vitro mTORC1 assay, p-4E-BP1(T37/46)/4E-BP1, Mean",mTORC1; compound 5 mM,0.3906
same,IC50,"mTORC1; mTORC1 immunoprecipitated from HEK293FT, recombinant 4E-BP1, 500 μM ATP",1030 µM
